Assay results taken from patent US7790762B2, “Compounds and methods for thiol-containing compound efflux and cancer treatment” (National Jewish Health, priority 2002, dated 2010).
Where two headings read alike, the source gives them in different places. Marks after values point to notes of the source that are not given here.

What was measured:
epithelial cells [1] = assay: Effects of compounds on extracellular GSH transport (Table 3); format: cell-based
epithelial cells [2] = assay: Extracellular GSH transport, Transwell Studies (Table 3); format: cell-based; conditions: 50 μM
A549 cells [3] = assay: Intracellular GSH levels by HPLC-EC in A549 cells; format: cell-based, human
Procedure: (§1) Cell lines and culture conditions. Human lung epithelial cancer (A549), human leukemia HL-60 and human prostate (PC-3) tumor cells were purchased from ATCC (Manassas, Va.). A549 and PC-3 cells were grown in Ham's F12 medium (F12) and Kaighn's modification of Ham's F12 medium (F12K) with 2 mM L-glutamine (ATCC), respectively, supplemented with 10% fetal bovine serum (FBS) and 5% pen/strep (10,000 unit, Cellgro). HL-60 cells were grown in Iscove's modified Dulbecco's medium with 4 mM L-glutamine (ATCC) supplemented with 20% FBS and 5% pen/strep. Cell were grown in T-75 flask at 37° C. and 5% CO2 air atmosphere and in 24-well plates for GSH levels and LDH release measurements.
(§2) Intracellular levels of GSH. Intracellular GSH levels can be determined by HPLC-EC. Cultured cells from 24-well plates were washed once with 1 ml of PBS and then re-suspended in 0.5 ml of distilled water with 40 μM of digitonin (2 mM stock solution in DMSO) for 30 min at room temperature. Then, 50 μl of 10% meta-phosphoric acid were added (1% final concentration), the samples were sonicated for 2 min, centrifuged at 20,000 g for 10 min, and 0.2 ml of supernatant placed in vials for HPLC analysis. […] The flow rate was […]. The retention time for GSH in these conditions was 7.5 min. The HPLC instrument was from ESA, Inc. (Chelmsford, Mass.), equipped with an autosampler (model 540) and a Coul array detector (model 5600A). The potential applied was +0.75 V vs. H/Pd electrode, and the injection volume 5 μl.

HL-60 cells [4] = assay: Intracellular GSH levels by HPLC-EC in HL-60 cells; format: cell-based, human; conditions: for Int. GSH % con.: HL-60, 75 μM; for activity at 25 µM: HL-60, 25 μM
Procedure: as §1, §2

PC-3 cells [5] = assay: Intracellular GSH levels by HPLC-EC in PC-3 cells; format: cell-based, human; conditions: for activity at 25 µM: Homo sapiens, read-out: Int. GSH % con.
Procedure: as §1, §2

A549 cells [6] = assay: Cytotoxicity as LDH release in A549 cells; format: cell-based, human; conditions: for LDH rel. % con. / LDH release, % of control at 75 µM: A549, 75 μM
Procedure: as §1
(§3) Assessment of cytotoxicity. In one exemplary method, membrane integrity of A549, HL-60 and PC-3 cells was used as an index of drug-induced cytotoxicity, and was assessed by monitoring the release of cytosolic lactate dehydrogenase (LDH). LDH activity was measured in the culture medium and cell lysates (50 mM HEPES, Triton X-100 0.5%, pH 7) using a plate reader format as previously described (41). Briefly, 5 μl of cell culture supernatant and lysates were incubated with 0.24 mM NADH in a Tris/NaCl pH 7.2 buffer in 96-well plates for 5 min at 25° C. The reaction was started by the addition of 9.8 mM pyruvate and the consumption of NADH followed at 340 nm for 5 min at 30° C. Percent LDH release was calculated by the following: (supernatant LDH/supernatant LDH+lysate LDH)×100.

HL-60 cells [7] = assay: Cytotoxicity as LDH release in HL-60 cells; format: cell-based, human; conditions: for LDH rel. % con. / LDH release, % of control at 50 µM: HL-60, 50 μM; for effect on the toxicity of curcumin (25 μM), LDH release: 48 hours, compound 25 μM (FIG. 20A)
Procedure: as §1, §3

PC-3 cells [8] = assay: Cytotoxicity as LDH release in PC-3 cells; format: cell-based, human; conditions: for LDH rel. % con. / LDH release, % of control at 50 µM: PC-3, 50 μM
Procedure: as §1, §3

HL-60 cells [9] = assay: Cellular superoxide by flow cytometry with hydroethidine in HL-60 cells; format: cell-based, human
Procedure: Flow cytometry. In one exemplary method, cellular superoxide (O2^−) was measured by flow cytometry analysis using hydroethidine (HE) (30). Untreated and treated HL-60 cells (approximately 10^6) were exposed to HE (1 μM from 1 mM stock solutions in DMSO) for 30 min, then were centrifuged at 3,500 g for 15 min, and washed once with 1 ml ice-cold PBS. Cells were re-suspended in 0.5 ml ice-cold PBS, and HE oxidation product, i.e., ethidium bromide (EB), analyzed within 30 min using the red channel (PE) of a FACSCalibur flow cytometer from Becton Dickinson Biosciences (San Jose, Calif.). The total number of cell counts was 25,000.

A549 cells [10] = assay: Extracellular GSH in culture supernatants of A549 cells (HPLC-FD, mBBr); format: cell-based, human; conditions: 25 μM, 2 hours of treatment (FIG. 19D)
Procedure: Extracellular levels of GSH. Extracellular GSH in the culture media supernatants of A549, HL-60 and PC-3 cells were measured by an HPLC-FD method of GSH analysis after derivatization with monobromobimane (mBBr). […] The mixture was incubated in dark at room temperature for 30 min, and the reaction was stopped by addition of 10 μl of 70% perchloric acid. The samples were centrifuged at 16,000 g for 10 min and 0.18 ml of supernatant placed in vials for HPLC analysis. The HPLC column used was Synergi 4u Hydro-RP 80A (C18) (150×4.6 mm) from Phenomenex (Torrance, Calif.) and the mobile phase a mixture of 1% acetic acid in H2O (pH adjusted to 4.25 using NH4OH) with 7% acetonitrile. The flow rate was 1 ml·min^−1 and the injection volume 1 μl. The detector excitation and emission wavelengths were […], respectively. The retention time for the GSH derivative was 9.5 min.

[11] = PC-3, 25 μM, 24 hours treatment
[12] = Homo sapiens, 24 hours treatment, read-out: Int. GSH % con.
[13] = Homo sapiens, 48 hours treatment, read-out: LDH rel. % con.
[14] = Homo sapiens, A549, 25 μM, 2 h, read-out: Intracellular GSH levels, % compared to control
[15] = Homo sapiens, A549, 25 μM, 4 h, read-out: Intracellular GSH levels, % compared to control
[16] = Homo sapiens, A549, 25 μM, 24 hours treatment, read-out: Int. GSH % con.

COc1ccc(-c2coc3cc(O)cc(O)c3c2=O)cc1 [Biochanin A]
% Increase Over Control (extracellular GSH) (epithelial cells [1]; 50 μM): 133 ^c % | % Increase Over Control (extracellular GSH) (epithelial cells [2]): 174 ^a % | Intracellular GSH levels, % compared to control (A549 cells [3]; A549, 25 μM, 4 h): 36.8 ± 0.9% | Int. GSH % con. (A549 cells [3]; A549, 25 μM, 24 hours treatment): <5 % con. | Int. GSH % con. (HL-60 cells [4]; 24 hours treatment): 20 % con. | Int. GSH % con. (PC-3 cells [5]; [11]): 81 % con. | LDH rel. % con. (A549 cells [6]; 48 hours treatment): 230 % con. | LDH rel. % con. (HL-60 cells [7]; 48 hours treatment): 133 % con. | LDH rel. % con. (PC-3 cells [8]; 48 hours treatment): 127 % con.

CC[n+]1ccccc1-c1c2nc(c(-c3cccc[n+]3CC)c3ccc([n-]3)c(-c3cccc[n+]3CC)c3nc(c(-c4cccc[n+]4CC)c4ccc1[n-]4)C=C3)C=C2.[Mn+3] [MnTE-2-PyP, Manganese(III) meso-tetrakis(N-ethylpyridinium-2-yl)porphyrin, reference compound]
effect on the toxicity of curcumin (25 μM), LDH release (HL-60 cells [7]; HL-60 cells): attenuated | O2^− levels induced by curcumin after pre-treatment (HL-60 cells [9]; HL-60 cells, pre-treated 30 μM for 2 hours (FIG. 21B)): lower levels of O2^− were detected

C[C@@H]1O[C@@H](OC[C@H]2O[C@@H](Oc3c(-c4ccc(O)c(O)c4)oc4cc(O)cc(O)c4c3=O)[C@H](O)[C@@H](O)[C@@H]2O)[C@H](O)[C@H](O)[C@H]1O [Rutin]
% Increase Over Control (extracellular GSH) (epithelial cells [1]; 100 μM): 160 ^b % | Int. GSH % con. (A549 cells [3]; A549, 75 μM, 24 hours treatment): 86 % con. | Int. GSH % con. (HL-60 cells [4]; 24 hours treatment): 98 % con. | LDH rel. % con. (A549 cells [6]; 48 hours treatment): 187 % con. | LDH rel. % con. (HL-60 cells [7]; 48 hours treatment): 98 % con. | LDH rel. % con. (PC-3 cells [8]; 48 hours treatment): 95 % con.

COc1ccc(CCN(C)CCCC(C#N)(c2ccc(OC)c(OC)c2)C(C)C)cc1OC (racemic) [Verapamil, (±)-verapamil, reference compound]
activation at 10 µM (epithelial cells [1]; Epithelial cell, 10 μM, read-out: % Increase Over Control (extracellular GSH)): 113% | activity at 50 µM (A549 cells [3]; Homo sapiens, A549, 50 μM, 24 hours treatment, read-out: Int. GSH % con.): 14% | activity at 25 µM (HL-60 cells [4]; [12]): 63% | activity at 25 µM (PC-3 cells [5]; [11]): 72% | LDH release, % of control at 50 µM (A549 cells [6]; Homo sapiens, A549, 50 μM, 48 hours treatment, read-out: LDH rel. % con.): 130% | LDH release, % of control at 25 µM (HL-60 cells [7]; Homo sapiens, HL-60, 25 μM, 48 hours treatment, read-out: LDH rel. % con.): 125% | LDH release, % of control at 50 µM (PC-3 cells [8]; [13]): 93%

O=C(/C=C/c1ccccc1)c1ccccc1O [2′-HC, 2′-hydroxychalcone]
activity at 25 µM (A549 cells [3]; [14]): < 5% | activity at 25 µM (A549 cells [3]; [15]): < 5% | activity at 25 µM (A549 cells [3]; [16]): < 5% | activity at 25 µM (HL-60 cells [4]; [12]): < 5% | activity at 25 µM (PC-3 cells [5]; [11]): 93% | LDH release, % of control at 75 µM (A549 cells [6]; [13]): 515% | LDH release, % of control at 50 µM (HL-60 cells [7]; [13]): 320% | LDH release, % of control at 25 µM (PC-3 cells [8]; Homo sapiens, PC-3, 25 μM, 48 hours treatment, read-out: LDH rel. % con.): 227% | extracellular GSH levels (A549 cells [10]): increased levels of GSH in the supernatants

O=C(/C=C/c1ccccc1)c1ccccc1 [Chalcone]
activity at 25 µM (A549 cells [3]; [14]): 48.5 ± 2.1% | activity at 25 µM (A549 cells [3]; [16]): < 5% | activity at 25 µM (HL-60 cells [4]; [12]): 100% | activity at 25 µM (PC-3 cells [5]; [11]): 119% | LDH release, % of control at 75 µM (A549 cells [6]; [13]): 150% | LDH release, % of control at 50 µM (HL-60 cells [7]; [13]): 236% | LDH release, % of control at 50 µM (PC-3 cells [8]; [13]): 229% | extracellular GSH levels (A549 cells [10]): increased levels of GSH in the supernatants

O=c1cc(-c2ccccc2)oc2cc(O)cc(O)c12 [Chrysin, 5,7 dihydroxyflavone]
effect on intracellular GSH (words) (A549 cells [3]; A549 cells): very potent inducer of intracellular GSH depletion | depletion of intracellular GSH (A549 cells [3]; A549 cells, 25 μM, 2 hours of treatment): 50% | effect on intracellular GSH (words) (A549 cells [3]; A549 cells, listed as chrysin): one active flavone-like structure for inducing GSH depletion | activity at 25 µM (A549 cells [3]; [14]): 47.2 ± 4% | activity at 25 µM (A549 cells [3]; [15]): 5.2 ± 0.5% | activity at 25 µM (A549 cells [3]; [16]): < 5% | effect on intracellular GSH (words) (HL-60 cells [4]; HL-60 cells): one active flavone-like structure for inducing GSH depletion | intracellular GSH levels in presence of curcumin (HL-60 cells [4]; HL-60 cells (FIG. 20B)): induced GSH depletion in presence of curcumin | depletion of intracellular GSH (HL-60 cells [4]; HL-60 cells, 50 μM, 24 hours): 50% | activity at 50 µM (HL-60 cells [4]; Homo sapiens, HL-60, 50 μM, 24 hours treatment, read-out: Int. GSH % con.): 40% | activity at 25 µM (PC-3 cells [5]; [11]): 51% | intracellular GSH, combination with curcumin (PC-3 cells [5]; PC-3 cells (data not shown)): resulted in GSH depletion | depletion of intracellular GSH (PC-3 cells [5]; PC-3 cells, 25 μM, 24 hours): 50% | effect on the toxicity of etoposide (A549 cells [6]; A549 cells, 48 hours, etoposide (10 µM)): failed to potentiate etoposide's toxicity | toxicity (A549 cells [6]; A549 cells, after 48 hours of treatment): relatively low toxicity | LDH release, % of control at 75 µM (A549 cells [6]; [13]): 225% | toxicity (HL-60 cells [7]; HL-60 cells, 25 μM (FIG. 20A)): not toxic | effect on the toxicity of curcumin (25 μM), LDH release (HL-60 cells [7]; HL-60 cells): potentiated the toxicity of curcumin | LDH release, % of control at 50 µM (HL-60 cells [7]; [13]): 195% | LDH release, % of control at 50 µM (PC-3 cells [8]; [13]): 132% | effect on curcumin-induced toxicity, LDH release (PC-3 cells [8]; PC-3 cells, 48 hours (FIG. 20C)): potentiated | effect on the toxicities of rotenone (20 μM), 2-ME (50 μM) and etoposide (40 μM) (PC-3 cells [8]; PC-3 cells, 48 hours, compound 10-20 μM): potentiated | O2^− levels on adding compound to curcumin treatment (HL-60 cells [9]; HL-60 cells (FIG. 21B)): no increase of O2^− levels was observed, but rather a decrease after 4 hours | O2^− levels (HL-60 cells [9]; HL-60 cells, 25 μM (FIG. 21B)): little change in O2^− levels
